Source: patent US7511013B2, “Cyclosporin analogues and their pharmaceutical uses” (AMR Technology, Inc., priority 2004, dated 2009)
*1 amine or outer side, *2 acyl side, *3 side chain or, on linkers, in order; H or OH if unused. Where a SMILES comes first, the peptide text is derived from it. [ ]: non-standard residue; d: D form. X1 = C=C/C=C/C[C@@H](C)[C@@H](O)[C@@H](C(=O)[*:2])N(C)[*:1]; X3 = C[C@H](C/C=C/Cl)[C@@H](O)[C@@H](C(=O)[*:2])N(C)[*:1]; X2 = C[C@H](C/C=C/I)[C@@H](O)[C@@H](C(=O)[*:2])N(C)[*:1]; NMeL = CN[C@@H](CC(C)C)C(=O)O; NMeV = CN[C@H](C(=O)O)C(C)C; dNMeS = CN[C@H](CO)C(=O)O; Abu = CC[C@H](N)C(=O)O

system: concanavalin A-stimulated splenocytes; test: Concanavalin A-stimulated splenocyte assay ([3H]thymidine incorporation); assay type: cell-based, BALB/c mice; conditions: not given
Procedure: Male BALB/c mice, at 5 to 7 weeks of age, were sacrificed by CO2 inhalation. Spleens were removed and dissociated by pushing through a nylon cell strainer. The splenocytes were washed in RPMI 1640/5% fetal calf serum (FCS) and pelleted at 400×g. Red blood cells were then lysed by resuspending the cell pellet in ACK lysis buffer (150 mM NH4Cl, 1 mM KHCO3, 0.1 mM EDTA, 3 mL per spleen) for 10 min at room temperature. After pelleting at 400×g, the cells were washed by resuspending in RPMI 1640/5% FCS and repelleting. The cell pellet was resuspended in RPMI 1640/5% FCS and again passed through a cell strainer to remove cell aggregates. The cells were then counted and adjusted to 2×10^6 cells/ml in RPMI 1640/10% FCS/50 μM 2-mercaptoethanol. Cell viability was assessed by Trypan blue staining. […] The cells were cultured in a 37° C. CO2 incubator for 2 days and then pulsed with 1 μCi of [^3H]thymidine for 6 hours. Cells were harvested onto filtermats with a TomTec 96 well plate harvester and lysed with H2O. The filtermat and scintillation fluid were sealed in a plastic sleeve. [^3H]thymidine incorporation was measured with a Wallac Trilux plate counter. Initial screens were done at a fixed value of 100 ng/ml test compound. IC50s were calculated from 7 point concentration-response curves using GraphPad software.

SMILES | IC50 (ng/mL), immunosuppressive activity of novel cyclosporin analogue compound
CC[C@@H]1NC(=O)[C@H]([C@H](O)[C@H](C)C/C=C/I)N(C)C(=O)[C@H](C(C)C)N(C)C(=O)[C@H](CC(C)C)N(C)C(=O)[C@H](CC(C)C)N(C)C(=O)[C@@H](C)NC(=O)[C@H](C)NC(=O)[C@H](CC(C)C)N(C)C(=O)[C@H](C(C)C)NC(=O)[C@H](CC(C)C)N(C)C(=O)[C@@H](CO)N(C)C1=O [Example 72, cyclosporin vinyl iodide] (cyclo([X2][Abu][dNMeS][NMeL]V[NMeL]A[dA][NMeL][NMeL][NMeV])) | 5 ng/mL
CC[C@@H]1NC(=O)[C@H]([C@H](O)[C@H](C)C/C=C/I)N(C)C(=O)[C@H](C(C)C)N(C)C(=O)[C@H](CC(C)C)N(C)C(=O)[C@H](CC(C)C)N(C)C(=O)[C@@H](C)NC(=O)[C@H](C)NC(=O)[C@H](CC(C)C)N(C)C(=O)[C@H](C(C)C)NC(=O)[C@H](CC(C)C)N(C)C(=O)CN(C)C1=O [Example 9, trans-deuterated cyclosporin vinyl iodide] | 7 ng/mL
CC[C@@H]1NC(=O)[C@H]([C@H](O)[C@H](C)C/C=C/Br)N(C)C(=O)[C@H](C(C)C)N(C)C(=O)[C@H](CC(C)C)N(C)C(=O)[C@H](CC(C)C)N(C)C(=O)[C@@H](C)NC(=O)[C@H](C)NC(=O)[C@H](CC(C)C)N(C)C(=O)[C@H](C(C)C)NC(=O)[C@H](CC(C)C)N(C)C(=O)CN(C)C1=O [Example 19, trans-cyclosporin vinyl bromide] | 9 ng/mL
CC[C@@H]1NC(=O)[C@H]([C@H](O)[C@H](C)CC=CC(F)(F)F)N(C)C(=O)[C@H](C(C)C)N(C)C(=O)[C@H](CC(C)C)N(C)C(=O)[C@H](CC(C)C)N(C)C(=O)[C@@H](C)NC(=O)[C@H](C)NC(=O)[C@H](CC(C)C)N(C)C(=O)[C@H](C(C)C)NC(=O)[C@H](CC(C)C)N(C)C(=O)CN(C)C1=O [Example 31, cyclosporin fluoride] | 38 ng/mL
CC[C@@H]1NC(=O)[C@H]([C@H](O)[C@H](C)C/C=C/I)N(C)C(=O)[C@H](C(C)C)N(C)C(=O)[C@H](CC(C)C)N(C)C(=O)[C@H](CC(C)C)N(C)C(=O)[C@@H](C)NC(=O)[C@H](C)NC(=O)[C@H](CC(C)C)N(C)C(=O)[C@H](C(C)C)NC(=O)[C@H](CC(C)C)N(C)C(=O)CN(C)C1=O [Example 6, cyclosporin vinyl iodide] | 11 ng/mL
CC[C@@H]1NC(=O)[C@H]([C@H](O)[C@H](C)CC=CCF)N(C)C(=O)[C@H](C(C)C)N(C)C(=O)[C@H](CC(C)C)N(C)C(=O)[C@H](CC(C)C)N(C)C(=O)[C@@H](C)NC(=O)[C@H](C)NC(=O)[C@H](CC(C)C)N(C)C(=O)[C@H](C(C)C)NC(=O)[C@H](CC(C)C)N(C)C(=O)CN(C)C1=O [Example 34, cyclosporin allylic fluoride] | 12 ng/mL
CCON=C/C=C/C[C@@H](C)[C@@H](O)[C@H]1C(=O)N[C@@H](CC)C(=O)N(C)CC(=O)N(C)[C@@H](CC(C)C)C(=O)N[C@@H](C(C)C)C(=O)N(C)[C@@H](CC(C)C)C(=O)N[C@@H](C)C(=O)N[C@H](C)C(=O)N(C)[C@@H](CC(C)C)C(=O)N(C)[C@@H](CC(C)C)C(=O)N(C)[C@@H](C(C)C)C(=O)N1C [Example 58, cyclosporin oxime] | 42 ng/mL
C=C/C=C/C[C@@H](C)[C@@H](O)[C@H]1C(=O)N[C@@H](CC)C(=O)N(C)[C@H](CO)C(=O)N(C)[C@@H](CC(C)C)C(=O)N[C@@H](C(C)C)C(=O)N(C)[C@@H](CC(C)C)C(=O)N[C@@H](C)C(=O)N[C@H](C)C(=O)N(C)[C@@H](CC(C)C)C(=O)N(C)[C@@H](CC(C)C)C(=O)N(C)[C@@H](C(C)C)C(=O)N1C [Example 69, trans-cyclosporin diene-d2] (cyclo([X1][Abu][dNMeS][NMeL]V[NMeL]A[dA][NMeL][NMeL][NMeV])) | 4 ng/mL
CC[C@@H]1NC(=O)[C@H]([C@H](O)[C@H](C)C/C=C/Cl)N(C)C(=O)[C@H](C(C)C)N(C)C(=O)[C@H](CC(C)C)N(C)C(=O)[C@H](CC(C)C)N(C)C(=O)[C@@H](C)NC(=O)[C@H](C)NC(=O)[C@H](CC(C)C)N(C)C(=O)[C@H](C(C)C)NC(=O)[C@H](CC(C)C)N(C)C(=O)[C@@H](CO)N(C)C1=O [Example 71, cyclosporin vinyl chloride] (cyclo([X3][Abu][dNMeS][NMeL]V[NMeL]A[dA][NMeL][NMeL][NMeV])) | 8 ng/mL
C=C/C=C/C[C@@H](C)[C@@H](O)[C@H]1C(=O)N[C@@H](CC)C(=O)N(C)[C@H](CO)C(=O)N(C)[C@@H](CC(C)C)C(=O)N[C@@H](C(C)C)C(=O)N(C)[C@@H](CC(C)C)C(=O)N[C@@H](C)C(=O)N[C@H](C)C(=O)N(C)[C@@H](CC(C)C)C(=O)N(C)[C@@H](CC(C)C)C(=O)N(C)[C@@H](C(C)C)C(=O)N1C [Example 67, trans-cyclosporin diene] (cyclo([X1][Abu][dNMeS][NMeL]V[NMeL]A[dA][NMeL][NMeL][NMeV])) | 7 ng/mL

same assay, conditions: FIG. 1, concanavalin A stimulated splenocyte assay

SMILES | potency in immunosuppression compared to cyclosporin A
CC[C@@H]1NC(=O)[C@H]([C@H](O)[C@H](C)C/C=C/I)N(C)C(=O)[C@H](C(C)C)N(C)C(=O)[C@H](CC(C)C)N(C)C(=O)[C@H](CC(C)C)N(C)C(=O)[C@@H](C)NC(=O)[C@H](C)NC(=O)[C@H](CC(C)C)N(C)C(=O)[C@H](C(C)C)NC(=O)[C@H](CC(C)C)N(C)C(=O)CN(C)C1=O [Example 9, trans-deuterated cyclosporin vinyl iodide] | enhanced potency
CC[C@@H]1NC(=O)[C@H]([C@H](O)[C@H](C)C/C=C/Cl)N(C)C(=O)[C@H](C(C)C)N(C)C(=O)[C@H](CC(C)C)N(C)C(=O)[C@H](CC(C)C)N(C)C(=O)[C@@H](C)NC(=O)[C@H](C)NC(=O)[C@H](CC(C)C)N(C)C(=O)[C@H](C(C)C)NC(=O)[C@H](CC(C)C)N(C)C(=O)CN(C)C1=O [Example 11, trans-deuterated cyclosporin vinyl chloride] | enhanced potency
